Values quoted from earlier work as cited in patent EP1541129A1, “Pharmaceutical effervescent formulation comprising amoxycillin and clavulanic acid” (Cimex AG, priority 2003, dated 2005).

Conditions: freely water-soluble

For O=C(O)[C@H]1/C(=C/CO)O[C@@H]2CC(=O)N21 [Potassium clavulanate, potassium clavulanate], the solubility in water is listed as “about 1 part of water for 1 part of solute”.
